The record followed here is paper doi:10.1101/2025.10.14.682402v1 (biorxiv, 2025).

What is called IC50 is the concentration that inhibits the measured activity by half.

One assay addresses T1, ULK1 (NanoBRET) (Homo sapiens, UniProt O75385).
T1 sequence (O75385 1-1050): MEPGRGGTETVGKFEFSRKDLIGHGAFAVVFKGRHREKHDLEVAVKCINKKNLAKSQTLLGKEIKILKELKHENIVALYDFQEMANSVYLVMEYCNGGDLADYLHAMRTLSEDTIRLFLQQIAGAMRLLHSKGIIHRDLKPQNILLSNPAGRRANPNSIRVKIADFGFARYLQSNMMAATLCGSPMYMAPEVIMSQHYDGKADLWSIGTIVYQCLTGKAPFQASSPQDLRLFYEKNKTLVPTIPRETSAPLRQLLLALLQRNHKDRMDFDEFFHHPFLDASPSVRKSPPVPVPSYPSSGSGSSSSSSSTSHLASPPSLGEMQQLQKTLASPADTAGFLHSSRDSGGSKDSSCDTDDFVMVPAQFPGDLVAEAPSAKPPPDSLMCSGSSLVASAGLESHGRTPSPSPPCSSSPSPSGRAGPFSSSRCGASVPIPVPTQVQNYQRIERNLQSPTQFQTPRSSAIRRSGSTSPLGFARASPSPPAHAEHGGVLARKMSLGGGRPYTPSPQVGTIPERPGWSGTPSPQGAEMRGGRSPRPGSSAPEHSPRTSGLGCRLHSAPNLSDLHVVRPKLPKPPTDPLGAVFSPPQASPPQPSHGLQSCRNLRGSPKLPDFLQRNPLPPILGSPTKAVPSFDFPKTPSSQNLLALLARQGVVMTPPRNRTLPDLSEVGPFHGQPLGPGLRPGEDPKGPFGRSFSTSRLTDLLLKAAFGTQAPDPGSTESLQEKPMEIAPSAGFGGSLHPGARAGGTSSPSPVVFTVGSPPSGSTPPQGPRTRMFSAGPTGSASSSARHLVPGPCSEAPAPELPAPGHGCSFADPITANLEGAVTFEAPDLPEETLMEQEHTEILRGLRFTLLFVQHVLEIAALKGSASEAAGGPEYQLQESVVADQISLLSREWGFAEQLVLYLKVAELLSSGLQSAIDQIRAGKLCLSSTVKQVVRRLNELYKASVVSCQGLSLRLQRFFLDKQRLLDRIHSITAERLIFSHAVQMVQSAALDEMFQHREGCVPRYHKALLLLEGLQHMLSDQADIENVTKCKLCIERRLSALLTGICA
In words: NanoBRET cellular target engagement. It counts as cell-based. Background: Bioluminescence resonance energy transfer reports proximity on the nanometre scale.

The target in assay [1] is T2, ULK1 (Homo sapiens, UniProt O75385).
T2 sequence (O75385 1-1050): T1 sequence (O75385 1-1050)
In words: ADP-Glo kinase assay. It counts as biochemical. Background: ADP-Glo first removes unused ATP, then detects ADP through luciferase.

Another assay addresses T3, ULK2 (Homo sapiens, UniProt Q8IYT8).
T3 sequence (Q8IYT8 1-1036): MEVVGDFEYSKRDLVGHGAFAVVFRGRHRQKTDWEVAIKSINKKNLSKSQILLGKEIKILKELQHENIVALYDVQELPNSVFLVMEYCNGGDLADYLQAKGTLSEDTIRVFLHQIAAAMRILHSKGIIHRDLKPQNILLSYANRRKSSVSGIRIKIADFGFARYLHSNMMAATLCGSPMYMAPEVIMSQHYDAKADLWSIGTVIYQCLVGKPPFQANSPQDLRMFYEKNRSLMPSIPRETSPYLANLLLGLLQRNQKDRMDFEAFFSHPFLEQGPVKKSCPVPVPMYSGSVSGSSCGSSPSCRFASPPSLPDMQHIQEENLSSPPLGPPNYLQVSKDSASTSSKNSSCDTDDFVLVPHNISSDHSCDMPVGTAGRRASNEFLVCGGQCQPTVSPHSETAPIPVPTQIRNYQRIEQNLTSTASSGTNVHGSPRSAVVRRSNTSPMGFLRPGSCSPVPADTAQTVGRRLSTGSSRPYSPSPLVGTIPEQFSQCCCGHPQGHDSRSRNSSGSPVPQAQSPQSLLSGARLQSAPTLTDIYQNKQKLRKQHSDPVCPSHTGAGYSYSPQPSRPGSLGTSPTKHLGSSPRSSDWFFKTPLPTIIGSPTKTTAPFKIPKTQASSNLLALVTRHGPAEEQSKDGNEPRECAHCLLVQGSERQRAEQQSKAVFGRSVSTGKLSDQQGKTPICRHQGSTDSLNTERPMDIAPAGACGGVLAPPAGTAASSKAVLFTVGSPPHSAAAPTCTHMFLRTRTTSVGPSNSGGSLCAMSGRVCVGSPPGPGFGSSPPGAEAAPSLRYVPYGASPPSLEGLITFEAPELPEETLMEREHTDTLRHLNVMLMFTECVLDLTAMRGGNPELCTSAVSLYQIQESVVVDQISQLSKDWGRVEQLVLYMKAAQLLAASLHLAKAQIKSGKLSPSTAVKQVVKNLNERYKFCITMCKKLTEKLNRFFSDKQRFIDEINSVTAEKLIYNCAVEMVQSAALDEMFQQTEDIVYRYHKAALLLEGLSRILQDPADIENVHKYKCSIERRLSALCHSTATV
In words: biochemical.

The next assay has as its target T4, kinase domain of ULK1 (Homo sapiens, UniProt O75385).
T4 sequence (O75385 1-283 limits assumed): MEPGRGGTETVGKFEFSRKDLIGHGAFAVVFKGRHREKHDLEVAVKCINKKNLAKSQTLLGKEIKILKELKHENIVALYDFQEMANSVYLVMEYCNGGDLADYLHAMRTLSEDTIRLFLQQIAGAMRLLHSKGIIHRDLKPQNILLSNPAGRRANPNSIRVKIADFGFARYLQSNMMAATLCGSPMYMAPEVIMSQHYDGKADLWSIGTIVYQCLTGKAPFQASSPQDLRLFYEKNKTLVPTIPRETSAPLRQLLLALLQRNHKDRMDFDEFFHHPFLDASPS
To be noted: binder.

The next assay concerns the target T5, kinase domain of ULK2 (Homo sapiens, UniProt Q8IYT8).
T5 sequence (Q8IYT8 1-276 limits assumed): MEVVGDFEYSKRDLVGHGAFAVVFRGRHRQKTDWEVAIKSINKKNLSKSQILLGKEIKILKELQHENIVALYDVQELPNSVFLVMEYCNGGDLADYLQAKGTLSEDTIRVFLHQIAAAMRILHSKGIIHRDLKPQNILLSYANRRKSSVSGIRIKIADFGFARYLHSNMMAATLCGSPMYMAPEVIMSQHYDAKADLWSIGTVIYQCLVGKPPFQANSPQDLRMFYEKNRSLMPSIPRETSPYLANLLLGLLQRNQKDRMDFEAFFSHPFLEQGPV
To be noted: binder.

Assay [2] has as its target T2, ULK1. In words: biochemical.

As for SBP-7455 [reference compound], at ULK1 (NanoBRET), the IC50 stood at 328 ± 43 nM.

`O=C1CCc2cc(Nc3ncc(C(F)(F)F)c(NC4CC4)n3)ccc2N1` [SBP-7501, reference compound] gave an IC50 at ULK1 (NanoBRET) of 167 ± 31 nM.

Turning to `CNC(=O)c1ccccc1Nc1nc(Nc2ccc(N3CCOCC3)cc2OC)ncc1C(F)(F)F` [6c, 2-(2-(2-Methoxy-4-morpholinophenylamino)-5-(trifluoromethyl)pyrimidin-4-ylamino)-N-methylbenzamide], the IC50 on ULK1 [1] was 62 nM; at ULK2 it was 1340 ± 198 nM. Also, the “ULK1 PTS (ºC)” value at kinase domain of ULK1 came to 6.55 ± 0.12 °C. Further, the “ULK2 PTS (ºC)” value on kinase domain of ULK2 stood at 6.50 ± 0.09 °C.

Take `CNC(=O)c1ccccc1Nc1nc(Nc2ccc3[nH]ccc3c2)ncc1Br` [6h, 2-(2-(1H-indol-5-ylamino)-5-bromopyrimidin-4-ylamino)-N-methylbenzamide]: the IC50 against ULK1 [2] is 6 ± 1 nM; against ULK2, > 3000 nM. Also, on kinase domain of ULK1, the “ULK1 PTS (ºC)” value was 8.08 ± 0.53 °C. In addition, the “ULK2 PTS (ºC)” value on kinase domain of ULK2 was 7.49 ± 0.46 °C.

As to `CNC(=O)c1ccccc1Nc1nc(Nc2ccc(N3CCOCC3)cc2OC)ncc1Br` [6b, 2-(5-Bromo-2-(2-methoxy-4-morpholinophenylamino)pyrimidin-4-ylamino)-N-methylbenzamide], the results for the IC50 against ULK1 [1] and on ULK2 were 141 nM and > 3000 nM, respectively. For the same compound, the “ULK1 PTS (ºC)” value at kinase domain of ULK1 is 5.60 ± 0.23 °C. Further, the “ULK2 PTS (ºC)” value at kinase domain of ULK2 is 4.13 ± 0.02 °C.

Consider `CNC(=O)c1ccccc1Nc1nc(Nc2ccc3c(c2)OCCO3)ncc1Cl` [6j, 2-(5-Chloro-2-(2,3-dihydrobenzo[b][1,4]dioxin-6-ylamino)pyrimidin-4-ylamino)-N-methylbenzamide], for which the half-maximal inhibitory concentration (IC50) was 218 nM on ULK1 [1] and > 3000 nM against ULK2. The “ULK1 PTS (ºC)” value at kinase domain of ULK1 worked out at 6.05 ± 0.13 °C. Moreover, the “ULK2 PTS (ºC)” value at kinase domain of ULK2 turned out to be 4.43 ± 0.33 °C.

Turning to `CNC(=O)c1ccccc1Nc1nc(Nc2cc(OC)ccc2C)ncc1Cl` [6k, 2-(5-Chloro-2-(5-methoxy-2-methylphenylamino)pyrimidin-4-ylamino)-N-methylbenzamide], the IC50 is 292 nM on ULK1 [1] and 893 ± 454 nM against ULK2. In addition, the “ULK1 PTS (ºC)” value at kinase domain of ULK1 is 5.75 ± 0.12 °C. Besides, the “ULK2 PTS (ºC)” value at kinase domain of ULK2 worked out at 3.38 ± 0.14 °C.

Regarding `CNC(=O)c1ccccc1Nc1nc(Nc2ccc3[nH]ccc3c2)ncc1Cl` [6g, 2-(2-(1H-indol-5-ylamino)-5-chloropyrimidin-4-ylamino)-N-methylbenzamide], the half-inhibitory concentration (IC50) was 94 ± 43 nM at ULK1 [2] and > 3000 nM against ULK2. Moreover, at kinase domain of ULK1, the “ULK1 PTS (ºC)” value amounted to 6.78 ± 0.19 °C. Besides, on kinase domain of ULK2, the “ULK2 PTS (ºC)” value is 5.86 ± 0.12 °C.

On to `CNC(=O)c1ccccc1Nc1nc(Nc2cc(OC)ccc2C)ncc1Br` [6m, 2-(5-Bromo-2-(5-methoxy-2-methylphenylamino)pyrimidin-4-ylamino)-N-methylbenzamide], for which the IC50 was 32 nM against ULK1 [1] and > 3000 nM against ULK2. In addition, the “ULK1 PTS (ºC)” value on kinase domain of ULK1 came to 6.78 ± 0.13 °C. Moreover, at kinase domain of ULK2, the “ULK2 PTS (ºC)” value stood at 4.28 ± 0.19 °C.

With `CNC(=O)c1ccccc1Nc1nc(Nc2ccc3c(c2)CC(=O)N3)ncc1Cl` [6f, 2-(5-Chloro-2-(2-oxoindolin-5-ylamino)pyrimidin-4-ylamino)-N-methylbenzamide], the IC50 was 21 nM against ULK1 [1] and > 3000 nM against ULK2. Moreover, on kinase domain of ULK1, the “ULK1 PTS (ºC)” value was determined as 0.20 ± 0.13 °C. Besides, the “ULK2 PTS (ºC)” value on kinase domain of ULK2 worked out at 0.48 ± 0.06 °C.

Turning to `CNC(=O)c1ccccc1Nc1nc(Nc2cc(OC)ccc2C)ncc1C(F)(F)F` [6l, 2-(2-(5-Methoxy-2-methylphenylamino)-5-(trifluoromethyl)pyrimidin-4-ylamino)-N-methylbenzamide], the IC50 at ULK1 [1] was 38 nM; against ULK2, 1960 ± 101 nM. The “ULK1 PTS (ºC)” value at kinase domain of ULK1 came out at 8.90 ± 0.17 °C. The “ULK2 PTS (ºC)” value on kinase domain of ULK2 was 7.08 ± 0.25 °C.

For `FC(F)(F)c1cnc(Nc2ccc3c(c2)CCNC3)nc1NC1CC1` [SBP-5147, reference compound], it took 47 ± 11 nM to reach half-maximal inhibition on ULK1 (NanoBRET) (IC50).

On to `CNC(=O)c1ccccc1Nc1nc(Nc2cc(N3CCOCC3)cc(N3CCOCC3)c2)ncc1Cl` [6s, 2-(5-Chloro-2-(3,5-dimorpholinophenylamino)pyrimidin-4-ylamino)-N-methylbenzamide], for which the results for the IC50 at ULK1 [2] and against ULK2 were 38 ± 4 nM and 180 ± 9 nM, respectively. Also, the “ULK1 PTS (ºC)” value at kinase domain of ULK1 came to 13.28 ± 0.40 °C. The “ULK2 PTS (ºC)” value at kinase domain of ULK2 came out at 11.50 ± 0.27 °C.

On to `CNC(=O)c1ccccc1Nc1nc(Nc2cc3c(cc2C)OCO3)ncc1Cl` [6i, 2-(5-Chloro-2-(6-methylbenzo[d][1,3]dioxol-5-ylamino)pyrimidin-4-ylamino)-N-methylbenzamide], for which the IC50 is 2700 ± 1780 nM on ULK1 [2] and > 3000 nM at ULK2. Moreover, the “ULK1 PTS (ºC)” value on kinase domain of ULK1 stood at 3.37 ± 0.38 °C. Moreover, the “ULK2 PTS (ºC)” value at kinase domain of ULK2 turned out to be 2.45 ± 0.20 °C.

`CNC(=O)c1ccccc1Nc1nc(Nc2cc(N3CCOCC3)cc(N3CCOCC3)c2)ncc1Br` [6t, 2-(5-Bromo-2-(3,5-dimorpholinophenylamino)pyrimidin-4-ylamino)-N-methylbenzamide]: the IC50 is 8 ± 1 nM against ULK1 [2] and 59 ± 6 nM on ULK2. At kinase domain of ULK1, the “ULK1 PTS (ºC)” value turned out to be 16.83 ± 0.12 °C. Besides, at kinase domain of ULK2, the “ULK2 PTS (ºC)” value was 16.23 ± 0.15 °C.

Take `CNC(=O)c1ccccc1Nc1nc(Nc2cccc(OC)c2)ncc1Cl` [6n, 2-(5-Chloro-2-(3-methoxyphenylamino)pyrimidin-4-ylamino)-N-methylbenzamide]: the IC50 on ULK1 [2] is 50 ± 25 nM; at ULK2 it was > 3000 nM. Also, at kinase domain of ULK1, the “ULK1 PTS (ºC)” value came to 6.53 ± 0.87 °C. Moreover, the “ULK2 PTS (ºC)” value on kinase domain of ULK2 was 1.38 ± 0.33 °C.
